Entries after “also recorded” stand apart in the source; their conditions may differ. Where no end group is shown, it is not given here.

Common to all, as to format: in vivo
The subject of test [1] is rat incisional wounds. The test can be described thus: Macroscopic wound quality (VAS) of day three rat incisional wounds. The settings on record: day 0 and 1, p<0.05 vs naïve wounds, FIG. 1. The protocol: The effects of the peptide on wound healing and scar formation were assessed with reference to the following parameters: • i) The macroscopic quality of the wounds. This was assessed using a rat macroscopic wound assessment protocol as follows. Macroscopic appearance was scored using a Visual Analogue Scale (VAS) consisting of a 10 cm line representing a scale from 0 (denoted by a mark at 0 cm) indicating a “good” wound to 10 (denoted by a mark at 10 cm) indicating a “poor” wound. In assessing the quality of the wound a mark representative of the score conferred was made on the 10 cm line based on the gape and quality of healing of the wound. The best-healed wounds were scored towards the good wound end of the scale (the left hand side of the VAS line) and the poorly healed ones were scored towards the poor wound end of the scale (the right hand side of the VAS line). The marks awarded were measured from the left hand side to provide the final value for the wound assessment in centimetres (to 1 decimal place). • ii) The microscopic width of wounds. The microscopic width of wounds was measured using image analysis of histological sections of wounds. Wounds were analysed using a Leica DM RXA Microscope and a Leica QWin Image Analyser. […] The extent of re-epithelialisation of wounds was measured using image analysis of histological sections of wounds. […]

The subject of test [2] is rat incisional wounds. The test can be described thus: Microscopic wound width by image analysis of day three rat incisional wounds. As to conditions: for wound width at the mid-points of incisional wounds: FIG. 3; for wound width at the top of incisional wounds: FIG. 2. As to the method: (§1) The effects of the peptide on wound healing and scar formation were assessed with reference to the following parameters: • i) The macroscopic quality of the wounds. This was assessed using a rat macroscopic wound assessment protocol as follows. Macroscopic appearance was scored using a Visual Analogue Scale (VAS) consisting of a 10 cm line representing a scale from 0 (denoted by a mark at 0 cm) indicating a “good” wound to 10 (denoted by a mark at 10 cm) indicating a “poor” wound. In assessing the quality of the wound a mark representative of the score conferred was made on the 10 cm line based on the gape and quality of healing of the wound. The best-healed wounds were scored towards the good wound end of the scale (the left hand side of the VAS line) and the poorly healed ones were scored towards the poor wound end of the scale (the right hand side of the VAS line). The marks awarded were measured from the left hand side to provide the final value for the wound assessment in centimetres (to 1 decimal place). • ii) The microscopic width of wounds. The microscopic width of wounds was measured using image analysis of histological sections of wounds. Wounds were analysed using a Leica DM RXA Microscope and a Leica QWin Image Analyser. Linear wound width was measured with a straight line from the left wound margin (where the epidermis begins to thicken) to the right wound margin (where the epidermis begins to thicken). • iii) The re-epithelialisation of wounds. The extent of re-epithelialisation of wounds was measured using image analysis of histological sections of wounds. The percentage re-epithelialisation was calculated by first measuring the non-epithelialised wound diameter. The non-epithelialised wound length was measured with a straight line from the left hand non-epithelialised wound edge to the right hand non-epithelialised wound edge. The non-epithelialised wound edges were identified as the current position of the epithelium in the wound during healing. The re-epithelialisation width was then calculated by subtracting the non re-epithelialised width from the wound width. The percentage re-epithelialisation was then calculated accordingly. • iv) The microscopic quality of the wounds. This was assessed using microscopic Wound Index sheets analysed in accordance with the protocol described below. Evaluation of the microscopic quality of the wounds included an assessment of inflammatory response present in the wounds, as well as assessment of the cellularity of the wounds.
(§2) Rat incisional wounds formed in accordance with well-accepted experimental models (previously described in Shah et al. 1994) were treated with peptide Ala-Tyr-Met-Thr-Met-Lys-Ile-Arg-Asn (Sequence ID No. 2) at concentrations of 50, 125, 250 […] ng/100 μl. Treated and control wounds were harvested at three days post-wounding, and scars derived from treated and control wounds harvested at seventy days post-wounding.
(§3) Four wounds were made on each experimental animal (rat), of which two were treated with the trial concentrations of the peptide. The peptide was administered by intradermal injection on the day of wounding and at one day following wounding.
The experimental animals for wound analysis were killed on the third day post-wounding, and wounds harvested for histology.
Wound widths and percentage re-epithelialisation of incisions were measured by Image Analysis in accordance with the protocols described above. […]

The test system of test [3] is rat incisional wounds. The test can be described thus: Percentage re-epithelialisation by image analysis of day three rat incisional wounds. As to conditions: FIG. 4. As to the method:
The effects of the peptide on wound healing and scar formation were assessed with reference to the following parameters: • i) The macroscopic quality of the wounds. This was assessed using a rat macroscopic wound assessment protocol as follows. Macroscopic appearance was scored using a Visual Analogue Scale (VAS) consisting of a 10 cm line representing a scale from 0 (denoted by a mark at 0 cm) indicating a “good” wound to 10 (denoted by a mark at 10 cm) indicating a “poor” wound. In assessing the quality of the wound a mark representative of the score conferred was made on the 10 cm line based on the gape and quality of healing of the wound. The best-healed wounds were scored towards the good wound end of the scale (the left hand side of the VAS line) and the poorly healed ones were scored towards the poor wound end of the scale (the right hand side of the VAS line). The marks awarded were measured from the left hand side to provide the final value for the wound assessment in centimetres (to 1 decimal place). • ii) The microscopic width of wounds. The microscopic width of wounds was measured using image analysis of histological sections of wounds. Wounds were analysed using a Leica DM RXA Microscope and a Leica QWin Image Analyser. Linear wound width was measured with a straight line from the left wound margin (where the epidermis begins to thicken) to the right wound margin (where the epidermis begins to thicken). • iii) The re-epithelialisation of wounds. The extent of re-epithelialisation of wounds was measured using image analysis of histological sections of wounds. The percentage re-epithelialisation was calculated by first measuring the non-epithelialised wound diameter. The non-epithelialised wound length was measured with a straight line from the left hand non-epithelialised wound edge to the right hand non-epithelialised wound edge. […] The re-epithelialisation width was then calculated by subtracting the non re-epithelialised width from the wound width. The percentage re-epithelialisation was then calculated accordingly. • iv) The microscopic quality of the wounds. […]

Test [4] has as its system rat incisional wounds. The test can be described thus: Microscopic Wound Index (wound width, cellularity, inflammation, epithelial covering) of day three rat incisional wounds. As to conditions: for wound index score / wound width score (Wound Index parameter): day three, combined scores of 3 observers; for wound index score: FIG. 5; for wound width score (Wound Index parameter): FIG. 6. As to the method:
as §1
Wound index assesses the quality of the wound and gives an assessment based upon the following parameters: wound width (scored out of 10; 1 being a very narrow wound and 10 being a very wide wound); total cellularity of the wound (scored out of 5; 1 being a wound containing a low number of cells and 5 being a wound with a high number of cells); inflammatory cell number (scored out of 5; 1 being a low number of inflammatory cells and 5 being a high number of inflammatory cells); and epithelial covering (scored 0 for complete coverage and 1 for incomplete coverage). The final wound index score is derived by adding the scores for each parameter. A higher wound index value indicates a wound of low quality, whilst a lower wound index value represents a wound of relatively higher quality. • v) The macroscopic quality of scars. This was assessed using a rat macroscopic scar assessment protocol as follows. Macroscopic appearance was scored using a Visual Analogue Scale (VAS) consisting of a 10 cm line representing a scale from 0 corresponding to normal skin to 10 corresponding to a bad scar. A mark was made on the 10 cm line based on an overall assessment of the scar taking into account parameters such as the height, width, contour and colour of the scar. […]

For test [5], the system named is rat incisional wounds. Put plainly: Macroscopic scar quality (VAS) of day seventy scars from rat incisional wounds. As to conditions: FIG. 9.
Text: Wound index assesses the quality of the wound and gives an assessment based upon the following parameters: wound width (scored out of 10; 1 being a very narrow wound and 10 being a very wide wound); total cellularity of the wound (scored out of 5; 1 being a wound containing a low number of cells and 5 being a wound with a high number of cells); inflammatory cell number (scored out of 5; 1 being a low number of inflammatory cells and 5 being a high number of inflammatory cells); and epithelial covering (scored 0 for complete coverage and 1 for incomplete coverage). The final wound index score is derived by adding the scores for each parameter. A higher wound index value indicates a wound of low quality, whilst a lower wound index value represents a wound of relatively higher quality. • v) The macroscopic quality of scars. This was assessed using a rat macroscopic scar assessment protocol as follows. Macroscopic appearance was scored using a Visual Analogue Scale (VAS) consisting of a 10 cm line representing a scale from 0 corresponding to normal skin to 10 corresponding to a bad scar. A mark was made on the 10 cm line based on an overall assessment of the scar taking into account parameters such as the height, width, contour and colour of the scar. The best scars (typically small width and colour, height and contour like normal skin) were scored towards the normal skin end of the scale (the left hand side of the VAS line) and bad scars (typically large width, raised with uneven contours and whiter colour) were scored towards the bad scar end of the scale (the right hand side of the VAS line). The marks were measured from the left hand side to provide the final value for the scar assessment in centimetres (to 1 decimal place).
as §2, §3
Scars for analysis were harvested from experimental animals killed on the seventieth day post-wounding.
Macroscopic quality of scars was assessed using macroscopic scar assessment sheets scored by two observers in accordance with the protocols described above.
Statistical analysis was carried out using a one-factor analysis of variance (ANOVA) followed by the Mann-Whitney U (MWU) test. […]

The mark [6] stands for this setting: 125 ng/100 μl, p<0.01 vs naïve wounds.

For the sequence “AYMTMKIRN [peptide of Sequence ID No. 2, peptide based on the C-terminal portion of interleukin 10 (IL-10)]”, the “macroscopic visual analogue (VAS) score, wound quality” value in the test with rat incisional wounds [1] (125 ng/100 μl intradermal) and with rat incisional wounds [1] (250 ng/100 μl intradermal) was “significant improvement in the macroscopic quality” throughout. The “wound width at the mid-points of incisional wounds” value is “significant decrease in wound width” in the test on rat incisional wounds [2] (50 ng/100 μl, p<0.05 vs naïve wounds); “significant decrease in wound width” with rat incisional wounds [2] (setting [6]); “significant decrease in wound width” in the test on rat incisional wounds [2] (250 ng/100 μl, p<0.01 vs naïve, p<0.05 vs diluent control wounds). For the same sequence, the “wound width at the top of incisional wounds” value in the test on rat incisional wounds [2] (setting [6]) was “significant decrease in wound width”; in the test on rat incisional wounds [2] (250 ng/100 μl, p<0.01 vs naïve wounds), “significant decrease in wound width”. Also, the “percentage of the tops of incisional wounds covered by re-epithelialisation” value in the test with rat incisional wounds [3] (50 ng/100 μl) is on record as “appeared to exhibit an increase in the extent of re-epithelialisation”; with rat incisional wounds [3] (125 ng/100 μl) it was “appeared to exhibit an increase in the extent of re-epithelialisation”; in the test on rat incisional wounds [3] (250 ng/100 μl, p<0.01 vs naïve, p<0.05 vs diluent alone) it was “significant increase in the extent of re-epithelialisation”. Also, the wound index score entry was “lower wound index scores than did control wounds” with rat incisional wounds [4] (50 ng/100 μl), “lower wound index scores than did control wounds” in the test on rat incisional wounds [4] (125 ng/100 μl) and “lower wound index scores than did control wounds; also recorded: lowest wound index scores” in the test on rat incisional wounds [4] (250 ng/100 μl). The “wound width score (Wound Index parameter)” value with rat incisional wounds [4] (50 ng/100 μl), in the test on rat incisional wounds [4] (125 ng/100 μl) and in the test with rat incisional wounds [4] (250 ng/100 μl) was “lower wound width scores than controls” throughout. For the same sequence, the “cellularity of treated wounds” value in the test with rat incisional wounds [4] (day three incisional wounds, combined observers, FIG. 7) is reported as “did not reduce cellularity of treated wounds”. Also, the “inflammatory response in treated wounds” value in the test with rat incisional wounds [4] (day three incisional wounds, combined observers, FIG. 8) was “did not reduce cellularity of treated wounds, or cause a reduction of the inflammatory response”. Moreover, the “macroscopic visual analogue (VAS) score, scar quality” value in the test on rat incisional wounds [5] (50 ng/100 μl, p<0.05 vs naïve control wounds) is on record as “significantly improved scarring”; with rat incisional wounds [5] (125 ng/100 μl, p<0.05 vs naïve control wounds), “significantly improved scarring”; with rat incisional wounds [5] (250 ng/100 μl, p<0.01 vs naïve and diluent control wounds, 2 observers) it was “significant improvement in macroscopic quality”; in the test with rat incisional wounds [5] (500 ng/100 μl, p<0.05 vs naïve control wounds) it was “significantly improved scarring”.

For the origin of these results see patent US20150218222A1, “Medicaments” (ARMO BioSciences, Inc., priority 2005, published 2015).
